Measurements reported in US9271978B2 (Zenith Epigenetics Corp., priority 2012, dated 2016).
Structures can show the parent of a compound that is named as a salt.

biological target: T1, Brd4 bromodomain 1 (BRD4(1)) (Homo sapiens, UniProt O60885); experiment: Inhibition of tetra-acetylated histone H4 binding to Brd4 bromodomain 1 (TR-FRET); set-up: key: Active: Compounds with an IC50 value less than 30 μM were deemed to be active.; Not Active: Compounds with an IC50 value less than 30 μM were deemed to be active; details: tetra-acetylated histone H4 peptide, active = IC50 <30 μM
T1 construct: Illustrative results with the first bromodomain of Brd4; made in house; host or cells: E. coli BL21 (DE3)
Method: Proteins were cloned and overexpressed with a N-terminal 6×His tag, then purified by nickel affinity followed by size exclusion chromatography. Briefly, E. coli BL21 (DE3) cells were transformed with a recombinant expression vector encoding N-terminally Nickel affinity tagged bromodomains from Brd2, Brd3, Brd4. Cell cultures were incubated at 37° C. with shaking to the appropriate density and induced overnight with IPTG. The supernatant of lysed cells was loaded onto Ni-IDA column for purification. Eluted protein is pooled, concentrated and further purified by size exclusion chromatography. Fractions representing monomeric protein were pooled, concentrated, aliquoted, and frozen at −80° C. for use in subsequent experiments.
Binding of tetra-acetylated histone H4 and BET bromodomains was confirmed by a Time Resolved Fluorescence Resonance Energy Transfer (TR-FRET) method. N-terminally His-tagged bromodomains (200 nM) and biotinylated tetra-acetylated histone H4 peptide (25-50 nM, Millipore) were incubated in the presence of Europium Cryptate-labeled streptavidin (Cisbio Cat. #610SAKLB) and XL665-labeled monoclonal anti-His antibody (Cisbio Cat. #61HISXLB) in a white 96 well microtiter plate (Greiner). For inhibition assays, serially diluted test compound was added to these reactions in a 0.2% final concentration of DMSO. Final buffer concentrations were 30 mM HEPES pH 7.4, 30 mM NaCl, 0.3 mM CHAPS, 20 mM phosphate pH 7.0, 320 mM KF, 0.08% BSA). After a 2-h incubation at room temperature, the fluorescence by FRET was measured at 665 and 620 nm by a SynergyH4 plate reader (Biotek). Illustrative results with the first bromodomain of Brd4 and the second bromodomain of Brd2 are shown below. The binding inhibitory activity was shown by a decrease in 665 nm fluorescence relative to 620 nm. IC50 values were determined from a dose response curve.

Structure (SMILES) | FRET activity (IC50 <30 μM) BRD4(1)
Cc1noc(C)c1-c1cc(N2CCN(C)CC2)c(=O)n(Cc2ccccc2)c1 [Example 153, 1-Benzyl-5-(3,5-dimethylisoxazol-4-yl)-3-(4-methylpiperazin-1-yl)pyridin-2(1H)-one Hydrochloride] | Active
COc1cc(=O)n(Cc2ccccc2)cc1-c1c(C)noc1C [Example 154, 1-Benzyl-5-(3,5-dimethylisoxazol-4-yl)-4-methoxypyridin-2(1H)-one] | Active
Cc1noc(C)c1-c1cc(Nc2ccc(F)cc2)c(=O)n(Cc2ccccc2)c1 [Example 156, 1-Benzyl-5-(3,5-dimethylisoxazol-4-yl)-3-((4-fluorophenyl)amino)pyridin-2(1H)-one] | Active
Cc1onc(CO)c1-c1ccc(=O)n(Cc2ccc(Cl)cc2)c1 [Example 159, 1-(4-Chlorobenzyl)-5-(3-(hydroxymethyl)-5-methylisoxazol-4-yl)pyridin-2(1H)-one] | Active
Cc1noc(C)c1-c1cc(N2CCNCC2)c(=O)n(Cc2ccccc2)c1 [Example 161, 1-Benzyl-5-(3,5-dimethylisoxazol-4-yl)-3-(piperazin-1-yl)pyridin-2(1H)-one Hydrochloride] | Not Active
CC(c1ccccc1)n1nc(-c2ccc(O)cc2)ccc1=O (stereo not shown) [Example 178, 6-(4-hydroxyphenyl)-2-(1-phenylethyl)pyridazin-3(2H)-one] | Active
Cc1noc(C)c1-c1cc(Nc2ccncc2)c(=O)n(Cc2ccccc2)c1 [Example 195, 1-benzyl-5-(3,5-dimethylisoxazol-4-yl)-3-(pyridin-4-ylamino)pyridin-2(1H)-one] | Active
Cc1nsc(C)c1-c1ccc(=O)n(Cc2ccccc2)c1 [Example 196, 1-benzyl-5-(3,5-dimethylisothiazol-4-yl)pyridin-2(1H)-one] | Active
Cc1nnc(C)n1-c1ccc(=O)n(Cc2ccc(Cl)cc2)c1 [Example 197, 1-(4-chlorobenzyl)-5-(3,5-dimethyl-4H-1,2,4-triazol-4-yl)pyridin-2(1H)-one] | Not Active
COC(=O)c1noc(C)c1-c1ccc(=O)n(Cc2ccc(Cl)cc2)c1 [Example 199, Methyl 4-(1-(4-chlorobenzyl)-6-oxo-1,6-dihydropyridin-3-yl)-5-methylisoxazole-3-carboxylate] | Not Active
Cc1noc(C)c1-c1cc(NS(C)(=O)=O)c(=O)n(Cc2ccccc2)c1 [Example 200, N-(1-Benzyl-5-(3,5-dimethylisoxazol-4-yl)-2-oxo-1,2-dihydropyridin-3-yl)methanesulfonamide] | Not Active

Second part, the compound after the results:

FRET activity (IC50 <30 μM) BRD4(1) | Structure (SMILES)
Not Active | Cc1noc(C)c1CNc1ccc(=O)n(Cc2ccccc2)n1 [Example 201, 2-Benzyl-6-(((3,5-dimethylisoxazol-4-yl)methyl)amino)pyridazin-3(2H)-one]
Active | Cc1onc(C(N)=O)c1-c1ccc(=O)n(Cc2ccc(Cl)cc2)c1 [Example 202, 4-(1-(4-Chlorobenzyl)-6-oxo-1,6-dihydropyridin-3-yl)-5-methylisoxazole-3-carboxamide]
Active | Cc1noc(C)c1-c1cc(-n2ccnc2)c(=O)n(Cc2ccccc2)c1 [Example 204, 1-benzyl-5-(3,5-dimethylisoxazol-4-yl)-3-(1H-imidazol-1-yl)pyridin-2(1H)-one]
Active | Cc1noc(C)c1-c1cc(N)c(=O)n(C)c1 [Example 224, 3-Amino-5-(3,5-dimethylisoxazol-4-yl)-1-methylpyridin-2(1H)-one]
Not Active | Cc1onc(C(=O)O)c1-c1ccc(=O)n(Cc2ccc(Cl)cc2)c1 [Example 225, 4-(1-(4-Chlorobenzyl)-6-oxo-1,6-dihydropyridin-3-yl)-5-methylisoxazole-3-carboxylic acid]
